Data published in US9771369B2, “Compounds and methods for kinase modulation, and indications therefor” (Plexxikon Inc., priority 2014, dated 2017).

Target: c-Kit kinase (Homo sapiens (Human), UniProt P10721)
Assay: c-Kit biochemical assay (AlphaScreen kinase activity)
How it was run: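 IC50 values come from 8-point, 1:3 compound titrations measuring inhibition of peptide phosphorylation by c-Kit (commercial or His-tagged E. coli-expressed) over 1 h at room temperature, read by AlphaScreen PY30/streptavidin beads. Low-ATP version: 10 μM ATP, 100 nM biotin-(E4Y)3; high-ATP version: 100 μM ATP, 30 nM biotin-(E4Y)10.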

Sequence of c-Kit kinase (P10721 26-976): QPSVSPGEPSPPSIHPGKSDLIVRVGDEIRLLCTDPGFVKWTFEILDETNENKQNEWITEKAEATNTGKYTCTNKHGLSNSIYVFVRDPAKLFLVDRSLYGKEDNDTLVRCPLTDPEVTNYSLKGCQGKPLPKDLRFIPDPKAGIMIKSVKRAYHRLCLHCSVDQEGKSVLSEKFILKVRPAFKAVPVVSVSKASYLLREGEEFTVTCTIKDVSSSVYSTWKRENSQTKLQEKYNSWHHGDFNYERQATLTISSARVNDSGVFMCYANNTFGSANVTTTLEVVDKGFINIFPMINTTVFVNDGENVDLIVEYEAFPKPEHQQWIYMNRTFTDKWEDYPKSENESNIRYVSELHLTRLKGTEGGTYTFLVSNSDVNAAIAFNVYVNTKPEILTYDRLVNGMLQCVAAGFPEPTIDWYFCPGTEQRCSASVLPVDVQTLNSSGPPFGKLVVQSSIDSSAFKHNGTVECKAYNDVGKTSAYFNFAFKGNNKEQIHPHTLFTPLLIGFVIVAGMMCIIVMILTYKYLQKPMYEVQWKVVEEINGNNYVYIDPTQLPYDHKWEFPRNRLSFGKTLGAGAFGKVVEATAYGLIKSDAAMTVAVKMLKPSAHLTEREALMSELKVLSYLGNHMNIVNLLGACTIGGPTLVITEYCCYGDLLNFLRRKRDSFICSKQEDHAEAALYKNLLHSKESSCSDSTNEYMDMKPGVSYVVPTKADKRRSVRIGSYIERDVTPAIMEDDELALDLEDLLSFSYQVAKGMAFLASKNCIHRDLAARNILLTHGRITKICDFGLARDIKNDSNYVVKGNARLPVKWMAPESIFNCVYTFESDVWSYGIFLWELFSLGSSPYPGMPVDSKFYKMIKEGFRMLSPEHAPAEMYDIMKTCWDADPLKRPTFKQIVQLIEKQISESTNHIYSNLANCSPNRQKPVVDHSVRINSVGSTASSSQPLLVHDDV

| Structure (SMILES) | IC50 [µM] |
| --- | --- |
| CCc1ccc(-c2[nH]c(C3CCN(c4ncnc5[nH]c(-c6ccnc(OC)c6)cc45)CC3)nc2C)cc1 [P-3059, 4-[4-[5-(4-ethylphenyl)-4-methyl-1H-imidazol-2-yl]-1-piperidyl]-6-(2-methoxy-4-pyridyl)-7H-pyrrolo[2,3-d]pyrimidine] | 0.0001 to 1 |
| CCc1ccc(-c2[nH]c(C3CCN(c4ncnc5[nH]c(-c6ccc(F)cc6)cc45)CC3)nc2C)cc1 [P-3060, 4-[4-[5-(4-ethylphenyl)-4-methyl-1H-imidazol-2-yl]-1-piperidyl]-6-(4-fluorophenyl)-7H-pyrrolo[2,3-d]pyrimidine] | 0.0001 to 1 |
| CCc1ccc(-c2[nH]c(C3CCN(c4ncnc5[nH]c(-c6ccc(C#N)cc6)cc45)CC3)nc2C)cc1 [P-3061, 4-[4-[4-[5-(4-ethylphenyl)-4-methyl-1H-imidazol-2-yl]-1-piperidyl]-7H-pyrrolo[2,3-d]pyrimidin-6-yl]benzonitrile] | 0.0001 to 1 |
| Cc1ccc(-c2[nH]c(C3CCN(c4ncnc5[nH]c(-c6ccc(F)cc6)cc45)CC3)nc2C)cc1 [P-3062, 6-(4-fluorophenyl)-4-[4-[4-methyl-5-(p-tolyl)-1H-imidazol-2-yl]-1-piperidyl]-7H-pyrrolo[2,3-d]pyrimidine] | 0.0001 to 1 |
| COc1ccc(-c2[nH]c(C3(C)CCN(c4ncnc5[nH]c(C)cc45)CC3)nc2C)cc1 [P-3063, 4-[4-[5-(4-methoxyphenyl)-4-methyl-1H-imidazol-2-yl]-4-methyl-1-piperidyl]-6-methyl-7H-pyrrolo[2,3-d]pyrimidine] | 1 to 10 |
| Cc1cc2c(N3CCC(C)(c4nc(C)c(-c5ccc(F)cc5)[nH]4)CC3)ncnc2[nH]1 [P-3064, 4-[4-[5-(4-fluorophenyl)-4-methyl-1H-imidazol-2-yl]-4-methyl-1-piperidyl]-6-methyl-7H-pyrrolo[2,3-d]pyrimidine] | 1 to 10 |
| CCOc1ccc(-c2[nH]c(C3CCN(c4ncnc5[nH]c(-c6ccc(F)cc6)cc45)CC3)nc2C)cc1C [P-3065, 4-[4-[5-(4-ethoxy-3-methyl-phenyl)-4-methyl-1H-imidazol-2-yl]-1-piperidyl]-6-(4-fluorophenyl)-7H-pyrrolo[2,3-d]pyrimidine] | 0.0001 to 1 |
| CCOc1ccc(-c2[nH]c(C3CCN(c4ncnc5[nH]c(-c6ccc(C#N)cc6)cc45)CC3)nc2C)cc1C [P-3066, 4-[4-[4-[5-(4-ethoxy-3-methyl-phenyl)-4-methyl-1H-imidazol-2-yl]-1-piperidyl]-7H-pyrrolo[2,3-d]pyrimidin-6-yl]benzonitrile] | 0.0001 to 1 |
| CCOc1ccc(-c2[nH]c(C3CCN(c4ncnc5[nH]c(-c6ccnc(OC)c6)cc45)CC3)nc2C)cc1C [P-3067, 4-[4-[5-(4-ethoxy-3-methyl-phenyl)-4-methyl-1H-imidazol-2-yl]-1-piperidyl]-6-(2-methoxy-4-pyridyl)-7H-pyrrolo[2,3-d]pyrimidine] | 0.0001 to 1 |
| Cc1nc(C2CCN(c3ncnc4[nH]c(-c5ccc(F)cc5)cc34)CC2)[nH]c1-c1ccc2c(c1)OCO2 [P-3068, 4-[4-[5-(1,3-benzodioxol-5-yl)-4-methyl-1H-imidazol-2-yl]-1-piperidyl]-6-(4-fluorophenyl)-7H-pyrrolo[2,3-d]pyrimidine] | 0.0001 to 1 |
| Cc1nc(C2CCN(c3ncnc4[nH]c(-c5ccc(C#N)cc5)cc34)CC2)[nH]c1-c1ccc2c(c1)OCO2 [P-3069, 4-[4-[4-[5-(1,3-benzodioxol-5-yl)-4-methyl-1H-imidazol-2-yl]-1-piperidyl]-7H-pyrrolo[2,3-d]pyrimidin-6-yl]benzonitrile] | 0.0001 to 1 |
| COc1cc(-c2cc3c(N4CCC(c5nc(C)c(-c6ccc7c(c6)OCO7)[nH]5)CC4)ncnc3[nH]2)ccn1 [P-3070, 4-[4-[5-(1,3-benzodioxol-5-yl)-4-methyl-1H-imidazol-2-yl]-1-piperidyl]-6-(2-methoxy-4-pyridyl)-7H-pyrrolo[2,3-d]pyrimidine] | 0.0001 to 1 |
| CC(=O)Nc1cccc(-c2cc3c(N4CCC(c5nc(C)c(-c6ccccc6)[nH]5)CC4)ncnc3[nH]2)c1 [P-3071, N-[3-[4-[4-(4-methyl-5-phenyl-1H-imidazol-2-yl)-1-piperidyl]-7H-pyrrolo[2,3-d]pyrimidin-6-yl]phenyl]acetamide] | 0.0001 to 1 |
| COc1ccc(-c2cc3c(N4CCC(c5nc(C)c(-c6ccccc6)[nH]5)CC4)ncnc3[nH]2)cn1 [P-3072, 6-(6-methoxy-3-pyridyl)-4-[4-(4-methyl-5-phenyl-1H-imidazol-2-yl)-1-piperidyl]-7H-pyrrolo[2,3-d]pyrimidine] | 1 to 10 |
| Cc1nn(C)cc1-c1cc2c(N3CCC(c4nc(C)c(-c5ccccc5)[nH]4)CC3)ncnc2[nH]1 [P-3073, 6-(1,3-dimethylpyrazol-4-yl)-4-[4-(4-methyl-5-phenyl-1H-imidazol-2-yl)-1-piperidyl]-7H-pyrrolo[2,3-d]pyrimidine] | 0.0001 to 1 |
| Cc1ccc(-c2cc3c(N4CCC(c5nc(C)c(-c6ccccc6)[nH]5)CC4)ncnc3[nH]2)cn1 [P-3074, 4-[4-(4-methyl-5-phenyl-1H-imidazol-2-yl)-1-piperidyl]-6-(6-methyl-3-pyridyl)-7H-pyrrolo[2,3-d]pyrimidine] | 0.0001 to 1 |

| Structure (SMILES) | IC50 [µM] |
| --- | --- |
| CCOc1cc(-c2cc3c(N4CCC(c5nc(C)c(-c6ccccc6)[nH]5)CC4)ncnc3[nH]2)ccn1 [P-3075, 6-(2-ethoxy-4-pyridyl)-4-[4-(4-methyl-5-phenyl-1H-imidazol-2-yl)-1-piperidyl]-7H-pyrrolo[2,3-d]pyrimidine] | 0.0001 to 1 |
| Cc1nc(C2CCN(c3ncnc4[nH]c(-c5ccnc(N6CCOCC6)c5)cc34)CC2)[nH]c1-c1ccccc1 [P-3076, 4-[4-[4-[4-(4-methyl-5-phenyl-1H-imidazol-2-yl)-1-piperidyl]-7H-pyrrolo[2,3-d]pyrimidin-6-yl]-2-pyridyl]morpholine] | 0.0001 to 1 |
| Cc1nc(C2CCN(c3ncnc4[nH]c(-c5ccnc(N6CCC(C)CC6)c5)cc34)CC2)[nH]c1-c1ccccc1 [P-3077, 4-[4-(4-methyl-5-phenyl-1H-imidazol-2-yl)-1-piperidyl]-6-[2-(4-methyl-1-piperidyl)-4-pyridyl]-7H-pyrrolo[2,3-d]pyrimidine] | 0.0001 to 1 |
| Cc1nc(C2CCN(c3ncnc4[nH]c(-c5ccnc(OC(C)C)c5)cc34)CC2)[nH]c1-c1ccccc1 [P-3078, 6-(2-isopropoxy-4-pyridyl)-4-[4-(4-methyl-5-phenyl-1H-imidazol-2-yl)-1-piperidyl]-7H-pyrrolo[2,3-d]pyrimidine] | 0.0001 to 1 |
| Cc1nc(C2CCN(c3ncnc4[nH]c(-c5ccnc(N6CCCC6)c5)cc34)CC2)[nH]c1-c1ccccc1 [P-3079, 4-[4-(4-methyl-5-phenyl-1H-imidazol-2-yl)-1-piperidyl]-6-(2-pyrrolidin-1-yl-4-pyridyl)-7H-pyrrolo[2,3-d]pyrimidine] | 0.0001 to 1 |
| Cc1nc(C2CCN(c3ncnc4[nH]c(-c5cccc(OC(F)(F)F)c5)cc34)CC2)[nH]c1-c1ccccc1 [P-3080, 4-[4-(4-methyl-5-phenyl-1H-imidazol-2-yl)-1-piperidyl]-6-[3-(trifluoromethoxy)phenyl]-7H-pyrrolo[2,3-d]pyrimidine] | 1 to 10 |
| Cc1nc(C2CCN(c3ncnc4[nH]c(-c5cccc(F)c5)cc34)CC2)[nH]c1-c1ccccc1 [P-3081, 6-(3-fluorophenyl)-4-[4-(4-methyl-5-phenyl-1H-imidazol-2-yl)-1-piperidyl]-7H-pyrrolo[2,3-d]pyrimidine] | 0.0001 to 1 |
| Cc1nc(C2CCN(c3ncnc4[nH]c(-c5cccc(NS(C)(=O)=O)c5)cc34)CC2)[nH]c1-c1ccccc1 [P-3083, N-[3-[4-[4-(4-methyl-5-phenyl-1H-imidazol-2-yl)-1-piperidyl]-7H-pyrrolo[2,3-d]pyrimidin-6-yl]phenyl]methane sulfonamide] | 0.0001 to 1 |
| Cc1nc(C2CCN(c3ncnc4[nH]c(-c5ccc(F)cc5)cc34)CC2)[nH]c1-c1ccc2c(c1)OCCO2 [P-3084, 4-[4-[5-(2,3-dihydro-1,4-benzodioxin-6-yl)-4-methyl-1H-imidazol-2-yl]-1-piperidyl]-6-(4-fluorophenyl)-7H-pyrrolo[2,3-d]pyrimidine] | 0.0001 to 1 |
| Cc1nc(C2CCN(c3ncnc4[nH]c(-c5ccc(F)cc5)cc34)CC2)[nH]c1-c1ccc(OC(F)(F)F)cc1 [P-3085, 6-(4-fluorophenyl)-4-[4-[4-methyl-5-[4-(trifluoromethoxy)phenyl]-1H-imidazol-2-yl]-1-piperidyl]-7H-pyrrolo[2,3-d]pyrimidine] | 0.0001 to 1 |
| Cc1nc(C2CCN(c3ncnc4[nH]c(-c5ccc(C#N)cc5)cc34)CC2)[nH]c1-c1ccc(OC(F)(F)F)cc1 [P-3086, 4-[4-[4-[4-methyl-5-[4-(trifluoromethoxy)phenyl]-1H-imidazol-2-yl]-1-piperidyl]-7H-pyrrolo[2,3-d]pyrimidin-6-yl]benzonitrile] | 1 to 10 |
| COc1cc(-c2cc3c(N4CCC(c5nc(C)c(-c6ccc(OC(F)(F)F)cc6)[nH]5)CC4)ncnc3[nH]2)ccn1 [P-3087, 6-(2-methoxy-4-pyridyl)-4-[4-[4-methyl-5-[4-(trifluoromethoxy)phenyl]-1H-imidazol-2-yl]-1-piperidyl]-7H-pyrrolo[2,3-d]pyrimidine] | 1 to 10 |
| COc1cc(-c2cc3c(N4CCC(c5nc(C)c(-c6ccc(C)cc6)[nH]5)CC4)ncnc3[nH]2)ccn1 [P-3088, 6-(2-methoxy-4-pyridyl)-4-[4-[4-methyl-5-(p-tolyl)-1H-imidazol-2-yl]-1-piperidyl]-7H-pyrrolo[2,3-d]pyrimidine] | 0.0001 to 1 |
| COc1ccc(-c2[nH]c(C3(C)CCN(c4ncnc5[nH]c(-c6ccc(C#N)nc6)cc45)CC3)nc2C)cc1C [P-3250, 5-[4-[4-[5-(4-methoxy-3-methyl-phenyl)-4-methyl-1H-imidazol-2-yl]-4-methyl-1-piperidyl]-7H-pyrrolo[2,3-d]pyrimidin-6-yl]pyridine-2-carbonitrile] | 0.0001 to 1 |
| CCOc1ccc(-c2[nH]c(C3(C)CCN(c4ncnc5[nH]c(-c6ccc(C#N)nc6)cc45)CC3)nc2C)cc1 [P-3251, 5-[4-[4-[5-(4-ethoxyphenyl)-4-methyl-1H-imidazol-2-yl]-4-methyl-1-piperidyl]-7H-pyrrolo[2,3-d]pyrimidin-6-yl]pyridine-2-carbonitrile] | 0.0001 to 1 |
